# What was measured:
# [1] = test system: ATCC 49775 reference strain; assay: Macrodilution time-kill assay; format: cell-based, Staphylococcus; details: 24 hours
# Experimental: Due to the detection limit of the OD measurements, the time-kill assays were also performed in macrodilution. In 15 mL tubes, 9 mL volumes of the test compounds in CAMHB were prepared at one, four and eight times the MIC concentration and 9 mL volumes of ampicillin were prepared in CAMHB at one and four times the MIC. 1 mL of a 4 to 5×10^6 bacterial suspension (as prepared for MIC testing) was added to each of the tubes as well as a growth control tube containing only 9 mL of CAMHB. These tubes were incubated at 37° C. in an orbital shaker rotating at 100 rpm for 24 hours. At 0, 1, 4, 8, 12 and 24 hours after addition of the bacteria, 100 μL samples were removed from each tube and serial diluted in 9.1 g/L saline solution. The dilutions were then plated in duplicate onto plate count agar and incubated for 24 hours at 37° C. After incubation, viable counts were obtained from the number of colonies visible on the agar and these were used to calculate the number of CFU/mL at each time point. For the macrodilution time-kill analysis, only the ATCC 49775 reference strain and MRSA 9 were assessed in order to further investigate the antibacterial activity against methicillin-resistant strains. These macrodilution time-kill assays were independently repeated and bactericidal activity was defined as a ≥3 log decrease in the number of CFU/mL.
# bovine mastitis isolates = assay: Minimum inhibitory concentration assay (Example 3); format: cell-based; details: for MIC90: 51 Australian bovine mastitis isolates
# From the text: Fifty-one dairy bovine mastitis isolates, encompassing a variety of bacterial species, were isolated from milk samples collected from dairy farms in rural South Australia by the University of Adelaide Ambulatory Clinic. Cellular morphology observed from Gram stains and catalase testing was used to differentiate Staphylococcus, Streptococcus and Corynebacterium species from Gram-negative species. Further biochemical testing including coagulase, Lancefield grouping, esculin hydrolysis and CAMP tests were used to identify the isolates to species level. Where biochemical test results were not definitive in identifying species, amplification and sequencing of the 16S ribosomal RNA gene was used to confirm the identity of the isolates.
# Minimum inhibitory concentration tests were performed in the manner outlined by the CLSI (CLSI 2012). Test compounds were dispensed into a 96-well microtitre tray containing 90 μl of CAMHB in 90 μl volumes and serial diluted to obtain a concentration gradient ranging from 128 μg/ml to 0.25 μg/ml (see FIG. 24). For Streptococcus species, CAMHB was replaced with a CAMHB supplement with 4% lysed-sheep blood (4% LSB:CAMHB). 4% LSB:CAMHB was prepared by mixing 5 ml sheep blood to 5 ml milliQ water, and repeated freezing at −20° C. and thawing, followed by centrifuged for 20 min at 7000 rpm. 7 ml of the supernatant was removed and added to 93 mL of CAMB.
# Bacterial suspensions were prepared by emulsifying fresh colonies obtained from an overnight culture on Sheep Blood Agar (SBA) in 4 mls of 9.1 g/l physiological saline to an optical density read at 600 nm (OD600nm) between 1.00 and 1.20. Standardised bacterial suspensions were diluted 1:10 in physiological saline and dispensed into all wells, excluding the negative control wells, in 10 μL volumes giving a final concentration of between 4×10^5 and 5×10^5 CFU/mL in each well. 96-well microtitre trays were incubated for 24 hours at 37° C. in 5% CO2 and then assessed both visually and using OD readings from a microplate reader at a wavelength of 600 nm. These tests were performed in duplicate and repeated if discrepancies in MIC values were observed between replicates.
# The minimum inhibitory concentration (MIC) was determined to be the lowest concentration of antibiotic that prevented growth of bacteria both visually and using OD readings. MIC values were collated and used to determine the lowest concentration of each compound effective against 50% and 90% of isolates, known as the MIC50 and MIC90 respectively. These values as well as the range of MIC values were then used for direct comparisons between test compounds and for general comparisons with ampicillin.
# [2] = test system: ATCC 49775 reference strain; assay: Microdilution time-kill assay; format: cell-based, Staphylococcus; details: for growth (optical density) compared to growth control: over a 48 hour period
# Experimental: Following assessment of MIC and MBC results, two compounds were chosen for analysis using microdilution time-kill assays, LP 1369 and LP 6315 and these were compared to ampicillin. Time-kill assays were performed according to the M26-A guidelines of the CLSI, with modifications. The test compounds and ampicillin were serial diluted in CAMHB across the rows of a 96 well plate and a bacterial suspension was prepared and added in the same manner as the MIC testing. […] The time points assessed were 0, 1, 2, 4, 8, 12, 24 and 48 hours after the addition of the bacterial suspension to the wells. Each test compound was tested in triplicate while ampicillin was tested in duplicate and this test was independently repeated. The bacterial strains used for the microdilution assays were chosen based on bactericidal activity evident during MBC testing. One strain from each of the categories of Staphylococcus in the isolate collection (methicillin-sensitive, methicillin resistant and coagulase negative) were selected as well as the ATCC reference strain for comparison. These strains were strains MSS 1, MSS 11, MRSA 9 and the ATCC 49775 reference strain.
# [3] = test system: Staphylococcus isolates (methicillin-sensitive and methicillin-resistant); assay: Minimum bactericidal concentration determination (Example 1); format: cell-based; details: for bactericidal activity (MBC testing): methicillin-sensitive and methicillin-resistant strains
# Experimental: Following determination of the MIC using the 96 well MIC plate, a variation of the drop plate method was used to determine minimum bactericidal concentration (MBC) for each of the test compounds. These were analysed using samples taken from the MIC plate following incubation. For each compound, a 10 μL drop of each concentration equal to or higher than the MIC was pipetted onto Sheep Blood Agar in a clockwise manner (FIG. 3). Each concentration was pipetted in duplicate with duplicates being pipetted on an inner ring of drops. The plates were incubated at 37° C. overnight and assessed the following day for growth. The MBC was defined as the concentration at which 99.9% of colonies were eradicated, which was visually assessed by a lack of growth on the agar where the drop was placed. […] The MBC values for 50% and 90% of the isolates (MBC50 and MBC90) were calculated and assessed along with the MBC range in order to select compounds for further study.
SMILES,decrease in the number of viable bacteria ([1]; all concentrations tested),MIC values (in words) (bovine mastitis isolates),antibacterial activity against the bovine mastitis isolates (bovine mastitis isolates),MIC90 (bovine mastitis isolates),growth (optical density) compared to growth control [2],strains against which bactericidal activity was exhibited more consistently [3],bactericidal activity (MBC testing) [3],MBC50 (rank among test compounds) ([3]; methicillin-sensitive isolates),bactericidal or bacteriostatic (>=3 log decrease in CFU/mL = bactericidal) ([1]; LP 6315: most concentrations),"growth at the MIC ([2]; at the MIC, 48 hours)",MBC50 (rank among test compounds) ([3]; methicillin-resistant isolates)
"CC[C@@H](C(=O)[C@@H](C)[C@@H](O)[C@H](C)CCc1ccc(C)c(O)c1C(=O)O)[C@H]1O[C@](CC)([C@H]2CC[C@](O)(CC)[C@H](C)O2)C[C@@H]1C [LP 1369, Lasalocid]",< 3 log10,low MIC values,observed,4 µg/mL,prevented the growth,methicillin-sensitive strains,some bactericidal activity in lower concentrations,lowest MBC50 values,,,
"CO[C@@H]1[C@@H](OC)[C@H](C)[C@@](O)(CC(=O)O)O[C@H]1[C@H](C)[C@H]1O[C@@]2(CC[C@@](C)([C@H]3CC[C@@](C)([C@@H]4O[C@@H]([C@H]5O[C@](C)(O)[C@H](C)C[C@@H]5C)C[C@@H]4O[C@@H]4C[C@H](OC)[C@@H](OC)[C@H](C)O4)O3)O2)C[C@H](O)[C@H]1C.N [LP 6315, Maduramicin]",,low MIC values,observed,4 µg/mL,prevented the growth,methicillin-sensitive strains,some bactericidal activity in lower concentrations,,bacteriostatic,Some growth was observed after 48 hours,lowest MBC50 values

# Source: US11491105B2, “Methods of treating microbial infections, including mastitis” (priority 2013, dated 2022)
